# Experimental data: ChEMBL document CHEMBL1134695, “Synthesis and evaluation of novel quinolinones as HIV-1 reverse transcriptase inhibitors” (Bioorg Med Chem Lett, 2001)
# Tests used:
# [1] = system: Human immunodeficiency virus 1; test: Antiviral activity against HIV-1 using antiinfectivity assay; type: functional, organism-based
# [2] = target: Human immunodeficiency virus type 1 reverse transcriptase (Human immunodeficiency virus 1, UniProt Q72547); test: Inhibition of HIV-1 reverse transcriptase.
# [3] = target: Human immunodeficiency virus type 1 reverse transcriptase (Human immunodeficiency virus 1) (UniProt Q72547)
# [4] = system: Human immunodeficiency virus type 1 reverse transcriptase (Human immunodeficiency virus 1), Q72547 [K103N]
# [5] = system: Human immunodeficiency virus type 1 reverse transcriptase (Human immunodeficiency virus 1), Q72547 [UNDEFINED MUTATION]
SMILES,IC90 [1] [nM],IC50 [2] [nM],IC90 [3] [nM],IC90 [4] [nM],C90 [5] [µM]
O=C1Nc2ccc(Cl)cc2[C@@](C#CC2CC2)(C(F)(F)F)[C@H]1OCC1CC1,130,1430,,,
CC(C)=CCO[C@H]1C(=O)Nc2ccc(Cl)cc2[C@@]1(C#CC1CC1)C(F)(F)F,> 1000,> 2000,,,
O=C1Nc2ccc(Cl)cc2[C@@](C#CC2CC2)(C(F)(F)F)[C@H]1OCc1ccc(F)cc1,112,899,,,
COC(=O)N[C@H]1C(=O)Nc2ccc(Cl)cc2[C@@]1(C#CC1CC1)C(F)(F)F,212,> 2000,,,
O=C1C[C@](C#CC2CC2)(C(F)(F)F)c2cc(Cl)ccc2N1,14,130,992,1770,
CCCO[C@H]1C(=O)Nc2ccc(Cl)cc2[C@@]1(C#CC1CC1)C(F)(F)F,62,1050,,,
O=C1Nc2ccc(Cl)cc2[C@@](C#CC2CC2)(C(F)(F)F)[C@H]1OCc1ccccn1,140,1570,,,
O=C1Nc2ccc(Cl)cc2[C@@](C#CC2CC2)(C(F)(F)F)[C@H]1OCc1ccccc1F,140,1300,,,
O=C1Nc2ccc(Cl)cc2[C@@](C#CC2CC2)(C(F)(F)F)[C@H]1OCc1ccccc1,71,440,,,
O=C1Nc2ccc(Cl)cc2[C@@](C#CC2CC2)(C(F)(F)F)[C@H]1O,637,> 2000,,,
Nc1cccc(CO[C@H]2C(=O)Nc3ccc(Cl)cc3[C@@]2(C#CC2CC2)C(F)(F)F)c1,138,1460,,,
Nc1ccc(CO[C@H]2C(=O)Nc3ccc(Cl)cc3[C@@]2(C#CC2CC2)C(F)(F)F)cc1F,26,241,,,
O=C1Nc2ccc(Cl)cc2[C@@](C#CC2CC2)(C(F)(F)F)[C@H]1NCc1ccccc1,218,> 2000,,,
CC(=O)N[C@H]1C(=O)Nc2ccc(Cl)cc2[C@@]1(C#CC1CC1)C(F)(F)F,917,> 2000,,,
O=C1Nc2ccc(Cl)cc2[C@@](C#CC2CC2)(C(F)(F)F)[C@H]1OCc1ccncc1,19,129,23,50,4.83
Nc1ccccc1CO[C@H]1C(=O)Nc2ccc(Cl)cc2[C@@]1(C#CC1CC1)C(F)(F)F,115,1020,,,
Nc1ccc(CO[C@H]2C(=O)Nc3ccc(Cl)cc3[C@@]2(C#CC2CC2)C(F)(F)F)cc1,21,412,49,1080,3.85
O=C1Nc2ccc(Cl)cc2[C@@](C#CC2CC2)(C(F)(F)F)[C@H]1OCc1cccnc1,20,438,,,
O=C1Nc2ccc(Cl)cc2[C@@](C#CC2CC2)(C(F)(F)F)[C@H]1OCc1cccc(F)c1,201,1780,,,
